Assay results from PMC8658095, “PHA-680626 Is an Effective Inhibitor of the Interaction between Aurora-A and N-Myc” (International Journal of Molecular Sciences, 2021).
Like-named read-outs stand apart in the source and are kept apart here.

Columns and labels:
AURKA/N-Myc complex = target: T1, AURKA/N-Myc complex (Homo sapiens, UniProt O14965); assay: In situ Proximity Ligation Assay of AURKA/N-Myc in U2OS MYCN cells; format: cell-based
T1 construct: endogenous in cells; host or cells: U2OS FRT/TO Flp-In; AURKA endogenous, N-Myc-tFT from a stably integrated, doxycycline-inducible construct
T1 sequence (O14965 1-403): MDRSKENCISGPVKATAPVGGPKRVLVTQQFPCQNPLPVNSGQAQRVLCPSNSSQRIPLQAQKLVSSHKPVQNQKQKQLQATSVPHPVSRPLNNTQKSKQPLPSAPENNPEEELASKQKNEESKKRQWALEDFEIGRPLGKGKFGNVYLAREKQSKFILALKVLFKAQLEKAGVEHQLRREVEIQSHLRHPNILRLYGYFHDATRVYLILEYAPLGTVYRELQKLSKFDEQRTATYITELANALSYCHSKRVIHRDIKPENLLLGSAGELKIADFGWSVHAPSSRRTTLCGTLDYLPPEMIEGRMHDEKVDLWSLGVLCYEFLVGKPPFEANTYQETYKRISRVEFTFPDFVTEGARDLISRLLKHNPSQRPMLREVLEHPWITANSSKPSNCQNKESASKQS
Excerpt: After treatment with the investigated inhibitors, the raw number of isPLA spots within the cell nuclei was normalized by the mean value of the control population. Cells were then assigned to four different classes, based on their number of normalized spots per nucleus (Figure 4C).
(C) in situ Proximity Ligation Assays to visualize the AURKA/N-Myc complex formation. […] The histograms on the right show the distribution (%) of cells in classes, defined by isPLA spot values. Values represent isPLA spots per nucleus, normalized to the average value in control cells (at least 1400 measured cells per condition, from four independent experiments); mean and SDare shown. Statistical analysis by 2-way ANOVA-Tukey’s multiple comparison, *: p < 0.05; ***: p < 0.001.
The Duolink PLA kit (DUO92007, Sigma-Aldrich) was used according to the manufacturer’s instructions. […] Counterstaining with DAPI (DUO82040, DAPI mounting media, Sigma Aldrich) was performed at the end of the procedure. For quantification of isPLA fluorescence signals, samples were analyzed with an inverted microscope Eclipse Ti (Nikon) using a Clara camera (ANDOR technology) and 60× (oil immersion, N.A. 1.4) objective along the z-axis every 0.4 μm for a range of 3.2 μm (for the U2OS MYCN cell line) or 5 μm (for the IMR-32 cell line). Images were acquired in the automated mode with the JOBS module of the Nis-Elements H.C. […]

IMR-32 cells [1] = assay: FACS analysis (PI) of cell cycle and sub-G1 DNA content; format: cell-based; conditions: IMR-32, 1 μM, 48 h; DMSO about 8%
Excerpt: We then moved to a neuroblastoma MYCN-amplified cell line, IMR-32.
(C) FACS analysis of IMR-32 cells treated as in (A) and stained with PI. The region used to evaluate the fraction of cells displaying sub-G1 DNA content is indicated. The percentage of vital cells distributed in each phase of the cell cycle, as well as the percentage of cells with sub-G1 DNA content calculated on the total acquired events, are shown (one experiment representative of three independent experiments).
To analyze the cell-cycle phases distribution, both non-adherent and adherent cells were collected by centrifugation, washed with PBS, and fixed with 50% methanol overnight at 4 °C. Cell-cycle phase distribution was analyzed after incubation for 30 min in the dark with propidium iodide (PI, 0.03 mg/mL) and RNAsi A (0.2 mg/mL) using a flow cytofluorimeter Epics XL apparatus (Beckman Coulter, Brea, CA, USA). […] Cell samples were analyzed in a Coulter Epics XL cytofluorometer (Beckman Coulter) equipped with EXPO 32 ADC software. At least 10,000 cells per sample were acquired. The percentage of cells in the different phases of cell-cycle and in the sub-G1 compartment was calculated using Flowing Software 2.5.1.

IMR-32 cells [2] = assay: Cell death (PARP-1 cleavage) and morphology of IMR-32 cultures; format: cell-based; conditions: IMR-32, 1 μM, 48 h
AURKA [3] = target: T2, AURKA (Homo sapiens, UniProt O14965); assay: SPR binding kinetics on immobilized AURKA; conditions: 25 °C, flow rate 150 μL/min
T2 construct: the catalytic domain of human AURKA (amino acids 122–430); His-tag followed by TEV protease cleavage site (N); made in house; host or cells: bacterial culture (LB, kanamycin, IPTG induction; pETM11)
T2 sequence (O14965 122-403 limits assumed): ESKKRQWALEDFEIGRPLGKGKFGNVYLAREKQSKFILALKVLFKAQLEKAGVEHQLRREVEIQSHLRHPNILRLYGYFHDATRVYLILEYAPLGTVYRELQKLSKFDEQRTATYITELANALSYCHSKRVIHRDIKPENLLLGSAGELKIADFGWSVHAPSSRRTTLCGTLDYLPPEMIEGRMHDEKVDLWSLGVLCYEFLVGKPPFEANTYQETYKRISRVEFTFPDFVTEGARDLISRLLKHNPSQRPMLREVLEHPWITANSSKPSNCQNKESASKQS
Description: AURKA was immobilized onto a PCH sensor chip, and each compound was injected at increasing concentrations in the running buffer. The interaction between AURKA and the ligands was indicated by the increase in Resonance Units (RUs), compared to the baseline.
SPR experiments were performed at 25 °C using a Pioneer AE optical biosensor (Molecular Devices-ForteBio, Fremont, CA, USA) equipped with a PCH sensor chip and equilibrated with running buffer 10 mM Hepes pH 7.4, 150 mM NaCl, 1% DMSO, 0.005% Tween20. The sensor chip was chemically activated for 7 min by injecting 175 μL of a 1:1 mixture of 100 mM N-hydroxysuccinimide (NHS) and 400 mM ethyl−3 (3-dimethylamino) propyl carbodiimide (EDC) at a flow rate of 25 μL/min. AURKA was immobilized on both Ch1 and Ch3 channels of the activated sensor chip by using standard amine-coupling procedures [42]. Flow cell Ch2 was left empty and used as a control. Briefly, a 0.1 mg/mL AURKA solution (in 10 mM sodium acetate, pH 4.5) was injected at 10 μL/min on channels 1 and 3 (channel 2 was used as reference), followed by a 70 μL injection of 1 M ethanolamine pH 8.0 to block any remaining activated groups on the surface. AURKA was captured to a density of ~14,000 resonance units (RUs) on both Ch1 and Ch3 flow cells.
A dissociation of 180 s was used and a mild regeneration of the surfaces was carried out every three injections using a solution of 1 M NaCl and 10 mM NaOH. At least two experiments for each analyte were performed. The interaction of the tested inhibitors with immobilized AURKA was detected as a measure of the change in mass concentration, expressed in RUs. […] All sensorgrams were processed using double referencing [44]. First, responses from the reference surface (Ch2) were subtracted from the binding responses collected over the reaction surfaces to correct for bulk refractive index changes between the flow buffer and analyte sample. […] To obtain kinetic rate constants and affinity constants, the corrected response data were fit in the QDAT software. […] The equilibrium dissociation constant (Kd) was determined by the ratio koff/kon.

AURKA [4] = conditions: cited from earlier work
[5] = design: method as in PMID 25175806; conditions: cited from earlier work

O=C(O)c1ccc(Nc2ncc3c(n2)-c2ccc(Cl)cc2C(c2c(F)cccc2F)=NC3)cc1 [MLN8054]
AURKA/N-Myc interaction (isPLA spots per nucleus) (AURKA/N-Myc complex): significantly reduced
cells with sub-G1 DNA content (IMR-32 cells [1]): ~30%
cleaved PARP-1 (cell death induction) (IMR-32 cells [2]; Western blot): a fraction of cleaved PARP-1

O=C(c1cccc(Cl)c1F)N1CCN(Cc2cccc(Nc3nccs3)n2)CC1 [MK8754, MK8745]
Koff (AURKA [3]): 12.0 ± 0.09 s^−1 × 10^−3
Kon (AURKA [3]): 7.8 ± 0.1 M^−1s^−1 × 10^6
Kd (AURKA [3]; koff/kon): 1.55 ± 0.03 nM
IC50 (AURKA [4]): 0.6 nM

O=C(Nc1ccc(Nc2nccc(Nc3cc(C4CCCC4)[nH]n3)n2)cc1)Nc1cccc(C(F)(F)F)c1 [CD532]
half-life [5]: short half-life
oral bioavailability [5]: poor oral bioavailability

COc1cc2c(Nc3ccc(NC(=O)c4ccccc4)cc3)ncnc2cc1OCCCN1CCOCC1 [ZM447439]
AURKA/N-Myc interaction (isPLA spots per nucleus) (AURKA/N-Myc complex; U2OS MYCN, 1 μM, MG-132 4 h before fixation): no difference between control and treated cells
cell morphology (IMR-32 cells [2]; bright-field microscopy): only induced spherical mitotic shapes
